Reference: US20100190834A1, “COMPOSITION FOR OPHTALMIC DISEASE ASSOCIATED WITH HYPOXIA OR ISCHEMIA” (R-TECH UENO, LTD., priority 2007, published 2010)
Marks after values point to notes of the source that are not given here.

Test system: oxygen-induced retinopathy model mouse
Test: Oxygen-induced retinopathy model mouse (model of retinopathy of prematurity), retina flat mount analysis
Assay type: in vivo, C57BL/6N mouse
Conditions: for abnormal angiogenesis region (%) / normal blood vessel region (%): average, p < 0.05 vs medium; for avascular region (result in words) / effect on abnormal angiogenesis (result in words): summary of Table 1 and Table 2, compared with medium group
Procedure: A model experiment of retinopathy of prematurity, which is an ophthalmic disease associated with hypoxia or ischemia, was performed based on a quantitative analysis method of oxygen-induced retinopathy model mouse (Experimental Eye Research 84 (2007) 529-536).
The date of birth of mouse was taken as day 0 of age. On day 7 of age, the mouse was placed in a high oxygen concentration breeding device together with the mother mouse and bred under high oxygen conditions (oxygen concentration 75±5%) up to day 12 of age. On day 12 of age, the high oxygen concentration breeding was terminated and the mouse was immediately placed under general breeding with intraperitoneal administration of the medium or test solution 1 twice a day for 7 days. On day 19 of age, retina flat mount was prepared from 4 mice out of the litter.
The mice were anesthetized by intraperitoneal administration of nembutal (1/10-fold diluted, 5 mg/mL) at 0.1 mL/mouse. The thoracic cavity was opened, and 1 mL of fluorescein isothiocyanate-dextran (FITC-dextran 20 mg/mL, FD2000S-1G, manufactured by SIGMA) was perfused from the heart.
After perfusion, the eyeball was immediately isolated, and fixed with 4% para-formaldehyde for 3-4 hr. The eyeball was anatomized to isolate retina, which as developed on a slide glass to prepare a flat mount. The whole retina area, avascular region and abnormal angiogenesis region were encircled with a stylus pen (CTE-640/S1, WACOM FVO) under a fluorescence microscope (ECLIPSE 80i, manufactured by Nikon), and measured using an analysis soft (WinROOF ver. 5.7.0, MITAMI Cor.), based on which the normal blood vessel region and abnormal angiogenesis region were calculated and compared.
normal blood vessel region (%): [{(whole retina area)−(area of avascular region)}/(whole retina area)]×100
abnormal angiogenesis region (%): {(abnormal angiogenesis region)/(whole retina area)}×100
In the same manner as in Experimental Example 1 except that test solution 2 was administered once a day, test solution 2 was intraperitoneally administered to model mouse for 7 days, and the normal blood vessel region and abnormal angiogenesis region thereof were measured.

[1] = test solution 2 (0.01 mg/mL) intraperitoneal once a day for 7 days, 18 eyes
[2] = test solution 1 (0.01 mg/mL) intraperitoneal twice a day for 7 days from day 12 of age, retina flat mount on day 19, 12 eyes

Compound	abnormal angiogenesis region (%) [1]	normal blood vessel region (%) [1]	avascular region (result in words)	effect on abnormal angiogenesis (result in words)	abnormal angiogenesis region (%) [2]	normal blood vessel region (%) [2]
CC(=O)Nc1nc(CCc2ccc(CCNC(=N)N)cc2)cs1 [test substance 2, N-(4-{2-[4-(2-{[amino(imino)methyl]amino}ethyl)phenyl]ethyl}-1,3-thiazol-2-yl)acetamide]	6.79* %	94.69* %	a decrease in the avascular region	a suppressive effect on abnormal angiogenesis		
CC(=O)Nc1nc(CCc2ccc(CC(=O)NN)cc2)cs1 [test substance 1, N-{4-[2-(4-hydrazinocarbonylmethylphenyl)ethyl]-1,3-thiazol-2-yl}acetamide]			a decrease in the avascular region	a suppressive effect on abnormal angiogenesis	7.04* %	93.44* %
